Measured values reported in ChEMBL document CHEMBL4400546, “A Cinchona Alkaloid Antibiotic That Appears To Target ATP Synthase in Streptococcus pneumoniae” (J Med Chem, 2019).

Key:
[1] = Cytotoxicity against human HepG2 cells assessed as reduction in cell viability after 48 hrs by Alamar Blue assay; type: cell-based
Streptococcus pneumoniae = experiment: Antibacterial activity against Streptococcus pneumoniae D39 after 20 hrs by CLSI-based microdilution method; type: functional; conditions: D39, 20 h
[2] = Drug level in ICR mouse liver microsomes treated with 6-Cyclobutoxy-(R)-4-[((1S,2S,4S,5Z)-5-ethylidene-1-azabicyclo-[2.2.2]octan-2-yl)hydroxymethyl]quinoline at 10 uM preincubated with NADPH for 10 mins and measured after 90 mins by LC-MS/MS analysis; type: ADME, Microsome; conditions: 1.5 h
[3] = Drug level in ICR mouse liver microsomes treated with 6-Cyclobutoxy-(R)-4-[((1S,2S,4S,5E)-5-ethylidene-1-azabicyclo[2.2.2]octan-2-yl)hydroxymethyl]quinoline at 10 uM preincubated with NADPH for 10 mins and measured after 90 mins by LC-MS/MS analysis; type: ADME, Microsome; conditions: 1.5 h

Row | SMILES | CC50 at 48 h [1] [µM] | MIC (Streptococcus pneumoniae) | Drug uptake [2] | Drug uptake [3]
1 | CC=C1C[N@]2CC[C@H]1C[C@H]2[C@H](O)c1ccnc2ccc(OCC(F)(F)F)cc12 | > 100 | 5 µM | – | –
2 | CC[C@H]1C[N@]2CC[C@H]1C[C@H]2[C@H](O)c1ccnc2ccc(OCC(F)(F)F)cc12 | 72 | 10 µM | – | –
3 | CC=CC1C[N@]2CC[C@H]1C[C@H]2[C@H](O)c1ccnc2ccc(OC)cc12 (stereo partly specified) | > 100 | 12 µM | – | –
4 | COc1ccc2nccc([C@@H](O)[C@@H]3C[C@@H]4CC[N@@]3CC4=O)c2c1 | > 100 | > 410 µM | – | –
5 | CC=C1C[N@]2CC[C@H]1C[C@H]2[C@H](O)c1ccnc2ccc(OC3CCCC3)cc12 | 48 | 5 µM | – | –
6 | O=c1cc([C@@H](O)[C@@H]2C[C@@H]3CC[N@@]2C/C3=C\CO)c2cc(OC3CCC3)ccc2[nH]1 | – | – | Active | Active
7 | COc1ccc2nccc([C@@H](O)[C@@H]3C[C@@H]4CC[N@@]3CC4=NOC3CCC3)c2c1 | > 100 | 84 µM | – | –
8 | CC=C1C[N@]2CC[C@H]1C[C@H]2[C@H](O)c1ccnc2ccc(OCC)cc12 | > 100 | 1 µM | – | –
9 | CC=C1C[N@]2CC[C@H]1C[C@@H]2[C@@H](O)c1ccnc2ccc(OC)cc12 | > 100 | > 395 µM | – | –
10 | COc1ccc2nccc([C@@H](O)[C@@H]3C[C@@H]4CC[N@@]3C/C4=N/O)c2c1 | > 100 | > 391 µM | – | –
11 | CCON=C1C[N@]2CC[C@H]1C[C@H]2[C@H](O)c1ccnc2ccc(OC)cc12 | > 100 | 360 µM | – | –
12 | CC[C@H]1CN2CC[C@H]1C[C@H]2[C@H](O)c1ccnc2ccc(OC)cc12 [HYDROQUININE] | > 100 | 98 µM | – | –
13 | COc1ccc2nccc([C@@H](O)[C@@H]3C[C@@H]4CC[N@@]3C/C4=N/OC(C)C)c2c1 | > 100 | 43 to 86 µM | – | –
14 | CC[C@H]1C[N@]2CC[C@H]1C[C@@H]2[C@H](F)c1ccnc2ccc(OC)cc12 | > 100 | > 390 µM | – | –
15 | CC[C@H]1C[N@]2CC[C@H]1C[C@H]2[C@H](O)c1ccnc2ccc(OC3CCC3)cc12 | 51 | 5 µM | – | –
16 | CCOC(=O)CCCON=C1C[N@]2CC[C@H]1C[C@H]2[C@H](O)c1ccnc2ccc(OC)cc12 | > 100 | 299 µM | – | –
17 | CC[C@H]1C[N@]2CC[C@H]1C[C@H]2[C@H](O)c1ccnc2ccc(OC(C)C)cc12 | 86 | 11 µM | – | –
18 | C=C[C@H]1C[N@@]2CC[C@H]1C[C@H]2[C@H](O)c1ccnc2ccc(OC)cc12 [QUININE] | > 100 | – | – | –
19 | CCCO/N=C1/C[N@]2CC[C@H]1C[C@H]2[C@H](O)c1ccnc2ccc(OC)cc12 | > 100 | 86 µM | – | –
20 | CC[C@H]1C[N@]2CC[C@H]1C[C@H]2[C@H](O)c1ccnc2ccc(OCC3CC3)cc12 | 87 | 22 µM | – | –
21 | C/C=C1\CN2CC[C@H]1C[C@H]2[C@H](O)c1ccnc2ccc(O)cc12 | – | – | Active | Active
22 | C=C[C@H]1CN2CC[C@@H]1C[C@H](F)[C@H]2c1ccnc2ccc(OC)cc12 | > 100 | 392 µM | – | –
23 | CC[C@H]1C[N@]2CC[C@H]1C[C@H]2[C@H](O)c1ccnc2ccc(OCc3ccccc3)cc12 | 76 | 16 to 32 µg/mL | – | –
24 | CC=C1C[N@]2CC[C@H]1C[C@H]2[C@H](O)c1ccnc2ccc(OCCCC)cc12 | 27 | 11 µM | – | –
25 | COc1ccc2nccc([C@@H](O)[C@@H]3C[C@@H]4CC[N@@]3C[C@@H]4[C@H](O)CO)c2c1 | > 100 | > 357 µM | – | –
26 | CC=C1C[N@]2CC[C@H]1C[C@@H]2[C@H](F)c1ccnc2ccc(OC)cc12 | > 100 | 392 µM | – | –
